According to patent publication US20260183297A1, “SELECTION OF PATIENTS FOR THE TREATMENT OF FADS1-MEDIATED DISEASES OR DISORDERS USING FADS-1 INHIBITORS” (AMGEN INC., priority 2022, published 2026):

Legend:
human FADS1 = target: T1, human FADS1 (Homo sapiens, UniProt O60427); experiment: In vitro FADS1 activity assay (HEK 293 cells with FADS1 BacMam, 13C5-DGLA substrate); assay type: cell-based; settings: in vitro human FADS1 activity assay
T1 construct: expressed in transfected cells; host or cells: HEK 293 cells transduced with FADS1 BacMam (MOI 25)
T1 sequence (O60427 whole entry): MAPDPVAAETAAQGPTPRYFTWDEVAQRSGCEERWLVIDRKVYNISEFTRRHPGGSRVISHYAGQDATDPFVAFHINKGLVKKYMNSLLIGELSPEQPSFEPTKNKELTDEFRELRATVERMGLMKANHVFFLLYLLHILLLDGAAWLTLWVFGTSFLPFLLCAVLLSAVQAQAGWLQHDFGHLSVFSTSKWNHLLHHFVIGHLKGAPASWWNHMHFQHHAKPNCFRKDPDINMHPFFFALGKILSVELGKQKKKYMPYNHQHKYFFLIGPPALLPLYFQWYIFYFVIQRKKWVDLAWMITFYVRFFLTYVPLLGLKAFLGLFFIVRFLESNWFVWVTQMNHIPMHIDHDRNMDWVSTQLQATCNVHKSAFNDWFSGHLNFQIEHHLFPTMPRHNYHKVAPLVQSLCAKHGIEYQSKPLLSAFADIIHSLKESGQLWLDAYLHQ
Experimental: HEK 293 cells in Dulbecco's Modified Eagle's medium (DMEM), 10% fetal bovine serum (FBS), 1× penicillin-streptomycin-glutamine (PSG) were mixed with FADS1 BacMam or FADS2 BacMam reagents at multiplicity of infection (MOI) ratio of 25 and plated in a in 96-well poly-D-lysine-coated plate. Plates were incubated in a 37° C., 5% CO2 for 24 hours. Cells were washed with DPBS and cells were incubated with 90 ml of compound dilution in DPBS at 5% CO2, 37° C. for 20 minutes. Ten L of the substrate, ^13C5-DGLA (FADS1), or 13C-LA (FADS2) diluted in DPBS were added to the cells and incubated at 5% CO2, 37° C. for 30 minutes (FADS1) or 45 minutes (FADS2). Cells were then washed with DPBS and 50 μL of 2N NaOH were added to each well and incubated in a 65° C. oven for 1 hour for the saponification reaction. […] Samples were then subjected to LC-MS/MS detection for the following analytes for the FADS1 reaction: ^13C5-DGLA and ^13C5-AA or the following analytes for the FADS2 reaction: ^13C18-LA, ^13C18-GLA, ^13C18-DGLA and ^13C18-AA. Samples were injected onto a Poroshell 120 EC-C18 3.0×50 mm, 1.9 um id column (Agilent, Santa Clara, CA).

mouse FADS1 = target: T2, mouse FADS1 (Mus musculus, UniProt Q920L1); experiment: Mouse FADS1 cell-based assay; settings: in vitro mouse FADS1 activity assay
T2 sequence (Q920L1 1-447): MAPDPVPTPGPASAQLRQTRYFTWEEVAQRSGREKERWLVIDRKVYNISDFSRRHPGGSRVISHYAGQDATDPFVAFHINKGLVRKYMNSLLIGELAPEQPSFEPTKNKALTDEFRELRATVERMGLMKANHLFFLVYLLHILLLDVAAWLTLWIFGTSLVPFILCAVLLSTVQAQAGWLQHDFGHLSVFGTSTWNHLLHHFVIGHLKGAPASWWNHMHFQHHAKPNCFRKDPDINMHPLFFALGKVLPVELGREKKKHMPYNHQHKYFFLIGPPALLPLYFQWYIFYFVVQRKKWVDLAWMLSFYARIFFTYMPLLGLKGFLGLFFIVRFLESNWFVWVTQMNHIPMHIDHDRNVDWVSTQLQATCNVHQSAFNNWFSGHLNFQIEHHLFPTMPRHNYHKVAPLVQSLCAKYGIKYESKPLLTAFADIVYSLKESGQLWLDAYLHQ
Experimental: (§1) HEK 293 cells in Dulbecco's Modified Eagle's medium (DMEM), 10% fetal bovine serum (FBS), 1× penicillin-streptomycin-glutamine (PSG) were mixed with FADS1 BacMam or FADS2 BacMam reagents at multiplicity of infection (MOI) ratio of 25 and plated in a in 96-well poly-D-lysine-coated plate. Plates were incubated in a 37° C., 5% CO2 for 24 hours. Cells were washed with DPBS and cells were incubated with […] of compound dilution in DPBS at 5% CO2, 37° C. for 20 minutes. Ten L of the substrate, ^13C5-DGLA (FADS1), or 13C-LA (FADS2) diluted in DPBS were added to the cells and incubated at 5% CO2, 37° C. for 30 minutes (FADS1) or 45 minutes (FADS2). Cells were then washed with DPBS and 50 μL of 2N NaOH were added to each well and incubated in a 65° C. oven for 1 hour for the saponification reaction. After cooling to room temperature, 22 μl of formic acid was added followed by the addition of 113 μl of acetonitrile with 1.5 μM ALA-d14 as the internal standard. Samples were then subjected to LC-MS/MS detection for the following analytes for the FADS1 reaction: ^13C5-DGLA and ^13C5-AA or the following analytes for the FADS2 reaction: ^13C18-LA, ^13C18-GLA, ^13C18-DGLA and ^13C18-AA. […]
(§2) The analyte peak areas were quantified by using the Analyst software (SCIEX, Framingham, MA). The percent of substrate to product conversion relative to untreated control were calculated (percent of control [POC]). […]

human FADS2 = target: T3, human FADS2 (Homo sapiens, UniProt O95864); experiment: In vitro FADS2 activity assay (HEK 293 cells with FADS2 BacMam, 13C-LA substrate); assay type: cell-based
T3 construct: expressed in transfected cells; host or cells: HEK 293 cells transduced with FADS2 BacMam (MOI 25)
T3 sequence (O95864 1-444): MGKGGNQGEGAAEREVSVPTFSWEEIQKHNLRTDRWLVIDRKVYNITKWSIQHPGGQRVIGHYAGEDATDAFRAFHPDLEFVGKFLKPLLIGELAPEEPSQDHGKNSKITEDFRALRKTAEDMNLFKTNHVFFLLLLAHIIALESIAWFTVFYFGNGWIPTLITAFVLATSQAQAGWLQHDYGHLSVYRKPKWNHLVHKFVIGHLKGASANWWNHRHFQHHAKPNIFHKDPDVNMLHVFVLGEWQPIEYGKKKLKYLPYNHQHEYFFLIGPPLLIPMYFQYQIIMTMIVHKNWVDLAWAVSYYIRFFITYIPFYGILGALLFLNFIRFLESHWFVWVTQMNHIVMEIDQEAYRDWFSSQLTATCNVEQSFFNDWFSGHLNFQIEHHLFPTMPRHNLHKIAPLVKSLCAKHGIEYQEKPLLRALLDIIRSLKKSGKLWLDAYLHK
Experimental: as §1, §2

FADS2 = target: T4, FADS2 (Mus musculus, UniProt Q9Z0R9); experiment: FADS2 inhibition by SC-26196 in DIO mice, plasma PUFA ratios; assay type: in vivo
T4 construct: from tissue; host or cells: living DIO mice; plasma GLA/LA and AA/DGLA ratios
T4 sequence (Q9Z0R9 1-444): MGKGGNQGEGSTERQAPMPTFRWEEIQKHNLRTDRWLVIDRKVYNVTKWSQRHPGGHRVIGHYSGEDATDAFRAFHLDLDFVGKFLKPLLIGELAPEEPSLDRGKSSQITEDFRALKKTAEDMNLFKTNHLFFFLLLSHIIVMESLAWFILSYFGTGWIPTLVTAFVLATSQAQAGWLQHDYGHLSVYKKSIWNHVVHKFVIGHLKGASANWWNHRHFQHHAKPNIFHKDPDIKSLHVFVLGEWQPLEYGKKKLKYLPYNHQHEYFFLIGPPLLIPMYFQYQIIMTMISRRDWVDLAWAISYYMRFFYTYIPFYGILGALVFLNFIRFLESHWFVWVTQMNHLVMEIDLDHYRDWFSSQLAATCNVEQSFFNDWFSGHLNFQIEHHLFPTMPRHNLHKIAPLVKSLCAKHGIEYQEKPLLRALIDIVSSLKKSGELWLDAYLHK
Experimental: FIG. 12 One-way ANOVA with Dunnett's test for multiple comparisons, *P<0.05, **P<0.01, ***P<0.001, ****P<0.0001.
Ten microliter of plasma or PUFA standards diluted in surrogate matrix (60 g/l bovine serum albumin in Dulbecco's phosphate-buffered saline [DPBS]) were mixed with 10 μl of ALA-d14 as the internal stand in a 96-well plate. 100 μl of 2N NaOH was added to the mixture for subsequent saponification at 65° C. for 1 hour. The mixture was then acidified with 50 μl of formic acid followed by two consecutive 500 μl hexane extractions. The organic extracts from the two extractions were combined and the solvent was evaporated under nitrogen gas. Extracts were then resuspended in 250 μl of 90% methanol and analyzed by liquid chromatography with tandem mass spectrometry (LC-MS/MS) for the following PUFAs: LA, GLA, DGLA, and AA, with ALA-d14 as the internal standard. The PUFA peak areas were quantified by using the Analyst software (SCIEX, Framingham, MA).

## N#CC(CCCN1CCN(/N=C/c2cccnc2)CC1)(c1ccccc1)c1ccccc1 [SC-26196]
Human FADS1
  effect on FADS1 activity: does not affect FADS1 activity
Mouse FADS1
  effect on FADS1 activity: does not affect FADS1 activity
Human FADS2
  effect on FADS2 activity: FADS2 specific inhibitor
FADS2
  plasma AA/DGLA ratio: increased
  plasma GLA/LA ratio: affects
